Results: the NIST ThermoML archive (doi:10.1021/je100526j)
Several values for one entry are separate records, joined by “and”; a condition that tells them apart may be missing. Identical values can stand only once. ± gives the expanded uncertainty stated by the source.

Legend:
[1] = xn = mol fraction of the nth substance listed; conditions: 101 kPa, Liquid
[2] = for mass density: Liquid, Vibrating tube method

c1cc[nH]c1 [pyrrole] + C1CCCCC1
mass density [kg/m3], [1]
Conditions	298.15 K	308.15 K	318.15 K	328.15 K	338.15 K
x1 = 0.0749	786.03 ± 0.52	776.43 ± 0.54	766.72 ± 0.55	756.88 ± 0.56	746.91 ± 0.58
x1 = 0.1409	797.78 ± 0.51	788.17 ± 0.53	778.44 ± 0.54	768.58 ± 0.55	758.6 ± 0.57
x1 = 0.1864	805.48 ± 0.51	795.87 ± 0.52	786.14 ± 0.54	776.3 ± 0.55	766.32 ± 0.56
x1 = 0.2637	819.91 ± 0.5	810.32 ± 0.51	800.64 ± 0.52	790.86 ± 0.54	780.96 ± 0.55
x1 = 0.3549	837.14 ± 0.49	827.63 ± 0.5	818.03 ± 0.51	808.35 ± 0.52	798.62 ± 0.54
x1 = 0.4446	854.23 ± 0.48	844.82 ± 0.49	835.34 ± 0.5	825.81 ± 0.51	816.3 ± 0.52
x1 = 0.5058	866.13 ± 0.47	856.8 ± 0.48	847.4 ± 0.49	837.91 ± 0.5	828.38 ± 0.51
x1 = 0.6032	884.76 ± 0.46	875.58 ± 0.47	866.33 ± 0.48	856.97 ± 0.49	847.56 ± 0.5
x1 = 0.6712	898.56 ± 0.46	889.48 ± 0.47	880.32 ± 0.48	870.17 ± 0.49	861.68 ± 0.5
x1 = 0.7183	908.28 ± 0.46	899.28 ± 0.47	890.2 ± 0.47	881.03 ± 0.49	871.79 ± 0.49
x1 = 0.761	916.78 ± 0.45	907.83 ± 0.46	898.79 ± 0.47	889.65 ± 0.48	880.41 ± 0.49
x1 = 0.8376	932.14 ± 0.45	923.29 ± 0.46	914.35 ± 0.46	905.29 ± 0.47	896.1 ± 0.48
x1 = 0.8824	941.41 ± 0.45	932.59 ± 0.45	923.7 ± 0.46	914.69 ± 0.47	905.55 ± 0.48
x1 = 0.9424	953.79 ± 0.44	945.05 ± 0.45	936.21 ± 0.46	927.25 ± 0.47	918.18 ± 0.47
x1 = 1	965.54 ± 0.39	956.83 ± 0.4	948.03 ± 0.4	939.14 ± 0.41	930.13 ± 0.42

c1cc[nH]c1 [pyrrole]
[2]
Conditions	Normal melting temperature	mass density [kg/m3]
298.15 K, 100 kPa	–	965.54 ± 0.29
298.15 K, 101 kPa	–	965.54 ± 0.39
298.15 K, 500 kPa	–	965.71 ± 0.29
298.15 K, 1000 kPa	–	966 ± 0.29
298.15 K, 1500 kPa	–	966.3 ± 0.29
298.15 K, 2000 kPa	–	966.59 ± 0.3
298.15 K, 2500 kPa	–	966.9 ± 0.3
298.15 K, 3000 kPa	–	967.19 ± 0.3
298.15 K, 4000 kPa	–	967.77 ± 0.3
298.15 K, 5000 kPa	–	968.35 ± 0.3
308.15 K, 101 kPa	–	956.83 ± 0.4
318.15 K, 101 kPa	–	948.03 ± 0.4
328.15 K, 101 kPa	–	939.14 ± 0.41
338.15 K, 101 kPa	–	930.13 ± 0.42
Crystal, visual observation	-23.5 ± 0.3 °C and -23.4 ± 0.3 °C	–
